In ChEMBL document CHEMBL1944611, “Genistein binding mode to doubly nicked dumbbell DNA. Dynamic and diffusion ordered NMR study” (J Med Chem, 2011):

Key:
Type in all cases: nucleic-acid assay
[1] = tested on: Nucleic Acid; experiment: Binding affinity to Doubly nicked dumbbell DNA 5'-TCGAACGC/iSp18/GCTG/3Phos/-3' at 1 mM compound concentration and pH 8.6
[2] = tested on: Nucleic Acid; experiment: Binding affinity to Doubly nicked dumbbell DNA 5'-TCGAACGC/iSp18/GCTG/3Phos/-3' at 1 mM DNA concentration and pH 8.4
[3] = tested on: Nucleic Acid; experiment: Binding affinity to Doubly nicked dumbbell DNA 5'-TCGAACGC/iSp18/GCTG/3Phos/-3' at 1.4 mM compound concentration and pH 8.4
[4] = tested on: Nucleic Acid; experiment: Binding affinity to Doubly nicked dumbbell DNA 5'-TCGAACGC/iSp18/GCTG/3Phos/-3' at 1 mM DNA concentration and pH 8.6
[5] = tested on: Nucleic Acid; experiment: Binding affinity to Doubly nicked dumbbell DNA 5'-TCGAACGC/iSp18/GCTG/3Phos/-3' at 1 mM DNA concentration and pH 9.2
[6] = tested on: Nucleic Acid; experiment: Binding affinity to Doubly nicked dumbbell DNA 5'-TCGAACGC/iSp18/GCTG/3Phos/-3' at 1.4 mM compound concentration and pH 9.2
[7] = tested on: Nucleic Acid; experiment: Binding affinity to Doubly nicked dumbbell DNA 5'-TCGAACGC/iSp18/GCTG/3Phos/-3' at 1 mM compound concentration and pH 6
[8] = tested on: Nucleic Acid; experiment: Binding affinity to Doubly nicked dumbbell DNA 5'-TCGAACGC/iSp18/GCTG/3Phos/-3' at 1.9 mM DNA concentration and pH 6

SMILES | Ka [1] [mM⁻¹] | Ka [2] [mM⁻¹] | Ka [3] [mM⁻¹] | Ka [4] [mM⁻¹] | Ka [5] [mM⁻¹] | Ka [6] [mM⁻¹] | Ka [7] [mM⁻¹] | Ka [8] [mM⁻¹]
O=c1c(-c2ccc(O)cc2)coc2cc(O)cc(O)c12 | 0.38 | 0.57 | 0.23 | 0.77 | 0.31 | 0.17 | – | –
CN(C)Cc1c(O)c(CN(C)C)c2occ(-c3ccc(O)cc3)c(=O)c2c1O | – | – | – | – | – | – | 0.5 | 0.71
